US4148787A, “Antidiuretically effective polypeptide and a process for preparing the same” (Ferring AB, priority 1976, dated 1979)

What was measured:
[1] = Relative antidiuretic activity in relation to DDAVP; assay type: in vivo; conditions: relative activity figure, DDAVP arbitrarily set at 1.00
Source text: (§1) Thus, the strenghts in Table I are expressed as relative activity figures, data for DDAVP as a comparative compound being arbitrarily set at 1.00.

[2] = Relative blood pressure (raising) activity in relation to DDAVP; assay type: in vivo
Source text: as §1

[3] = Relative uterotonic activity in relation to DDAVP; conditions: relative activity figure, DDAVP arbitrarily set at 1.00
Source text: as §1

Structure (SMILES) | Antidiuresis (relative activity) [1] | Blood pressure (relative activity) ([2]; relative activity figure, DDAVP arbitrarily set at 1.00) | Uterotonic (relative activity) [3] | Blood pressure (relative activity) ([2]; in vivo)
NC(=O)CC[C@@H]1NC(=O)[C@H](Cc2ccccc2)NC(=O)[C@H](Cc2ccc(O)cc2)NC(=O)CCSSC[C@@H](C(=O)N2CCC[C@H]2C(=O)N[C@H](CCCN=C(N)N)C(=O)NCC(N)=O)NC(=O)[C@H](CC(N)=O)NC1=O [DDAVP, desamino-D-arginine^8 -vasopressin] | 1.00 | 1.00 | 1.00 | –
NC(=O)CC[C@@H]1NC(=O)[C@H](Cc2ccccc2)NC(=O)[C@H](Cc2ccc(O)cc2)NC(=O)[C@@H](N)CSSC[C@@H](C(=O)N2CCC[C@H]2C(=O)N[C@@H](CCCN=C(N)N)C(=O)NCC(N)=O)NC(=O)[C@H](CC(N)=O)NC1=O [Arg-vasopressin, arginine-vasopressin] | 0.10 | – | 1.0 | 1450
